Reference: patent publication US7611863B2, “Selective staining of biomembranes using voltage-sensitive dyes” (Max-Planck-Gesellschaft zur Foerderung der Wissenschaften …, priority 2004, dated 2009)

Columns and labels:
[1] = Dye-lipid binding by fluorescence lipid titration; type: physicochemical; details: for average binding constant K to lipid membrane: POPC vesicles, Tris-NaCl buffer pH 8.1, 25° C., dye 0.5 μM; for binding constant to lipid membranes: fluorescence lipid titration, Example 2
Experimental: Dye-lipid binding. The binding of the dyes to lipid membranes was determined by fluorescence lipid titration^21 with large unilamellar vesicles (LUVs) made of 1-palmitoyl-2-oleoyl-phosphatidylcholine (POPC). The purity of the lipids was checked by 2-dimensional TLC^22. The vesicles were made by extrusion^23 in Tris-NaCl buffer (20 mM Tris, 100 mM NaCl, pH 8.1), using an extrusion apparatus and polycarbonate filters with 100 nm pore size (both Avestin Europe, Mannheim, Germany). Vesicle size was determined by quasielastic light scattering using an argon ion laser (Spectra-Physics, Darmstadt, Germany), a photomultiplier (Brookhaven Instruments, Vienna, Austria) and a correlator (ALV-5000, Langen, Germany). The lipid concentration was determined by a chromogenic enzyme assay (Biomerieux, Marcy I'Etoile, France). The standard deviation of three concentration measurements for every vesicle preparation was always below 4%. Vesicles were stored under argon at 4° C. in 15 ml Falcon Centrifuge Tubes (BD Labware Europe, Le Pont de Claix, France) and used within three days.
To measure dye binding constants, we prepared 1 mM solutions of the dyes 1-3 by ultrasonication in Ethanol (1) or Tris-NaCl buffer (2,3). […] In the same buffer, suspensions of POPC vesicles with concentrations ranging from 100 nM to 10 mM were prepared by dilution of stock solutions. Dye and lipid were pre-thermostatted to 25° C. […] The fluorescence emission recorded at 600 nm with excitation at 488 nm was used for the evaluation of the partition coefficients.
Dye binding to lipid. When styryl hemicyanines bind to lipid bilayers, their quantum yield of fluorescence is enhanced. […] We take advantage of that effect to examine the binding of Di-4-ASPP phosphate and Di-4-ASPP alcohol to lipid membranes by fluorescence titration^21. For comparison Di-4-ASPBS was also included in the investigation.
Dispersions of large lipid vesicles (Ø≈100 nm) were made from palmitoyl-oleoyl-phosphatidylcholine (POPC) with lipid concentrations ranging over five orders of magnitude. […] The fluorescence intensity was enhanced with increasing concentration of lipid for all three dyes. The enhancement was shifted to higher lipid concentrations in the order Di-4-ASPP alcohol, Di-4-ASPBS and Di-4-ASPP phosphate.
Binding. The dyes Di-10-phosphato-ASPBS (Di-10P-ASPBS) and Di-12-phosphato-ASPBS (Di-12P-ASPBS) as well as the corresponding products after enzymatic hydrolysis Di-10-hydroxy-ASPBS (Di-10A-ASPBS) and Di-12-hydroxy-ASPBS (Di-12A-ASPBS) were synthesized by organic chemical methods. Their binding to lipid membranes was tested by fluorescence lipid titration (cf. page 15, section dye binding to lipid). The binding constants amounted to 27 M^−1 (Di-10P-ASPBS), 250,000 M^−1 (Di-10A-ASPBS), 2100 M^−1 (Di-12P-ASPBS) and 3,000,000 M^−1 (Di-12P-ASPBS) (FIGS. 14 and 15 (center and right hand side)). The difference in binding constants between dye alcohol and dye phosphates (or dye precursors) therefore amounted to a factor of 10,000 for the pair Di-10P-ASPBS/Di-10A-ASPBS and to a factor of 1000 for the pair Di-12P-ASPBS/Di-12A-ASPBS. The binding curve for the more lipophilic pair Di-12P-ASPBS/Di-12A-ASPBS is shifted to […] lipid concentrations.

[2] = upon transfer from water to lecithin membranes; cited from earlier work
HEK 293 cells = experiment: Staining of HEK 293 cells by activation of binding through soluble phosphatase; type: cell-based
Experimental: FIG. 12A to F: Staining of HEK 293 cells with a voltage sensitive dye by activation of binding through soluble phosphatase added to the incubation medium. HEK 293 cells (A, brightfield image) were incubated with the voltage sensitive fluorescent dye Di-8-phosphato-ASPBS (cf. FIG. 11, bottom) at a concentration of 19.6 μM. […] The images shown are optimized for contrast and intensity.

[3] = test system: HEK 293 cells expressing fusion protein of plasma membrane anchor and PLAP; experiment: Staining of HEK 293 cells through overexpressed membrane-bound phosphatase; type: cell-based
From the text: FIG. 13A to C: Staining of transfected HEK 293 cells with a voltage sensitive dye by activation of binding through an overexpressed, membrane-bound phosphatase. HEK 293 cells were cotransfected with a vector coding for GFP and a vector coding for a fusion protein of a plasma membrane anchor and phosphatase from the human placenta. A. fluorescence image showing the GFP fluoresence of a transfected cell (excitation filter 450/50 nm, emission filter 510 nm longpass; dichroic mirror: 505 nm). B. The voltage sensitive fluorescent dye Di-8-phosphato-ASPBS (cf. FIG. 11, bottom) was added to the incubation medium. […] C. […] The images shown are optimized for contrast and intensity.
(§1) FIG. 16. Genetically Targeted Staining of HEK293 cells with 1 mM Di-10P-ASPBS. A mixture of stable clones either expressing the membrane-bound phosphatase construct or cytosolic GFP were cultured on the same dish. (A) From left to right: (i) Brightfield image of cells. (ii) Fluorescence image of cells showing cells expressing cytosolic GFP (excitation filter 450/50 nm, emission filter 510 nm, dichroic mirror 505 nm). (iii) Cells expressing phosphatase as obtained by subtraction of GFP expressing cells from image i. (iv) Fluorescence image of cells with filters exc. 535/50 nm, em. 610/75 nm; dichroic mirror 535 nm. The image is normalized to the same level as in row B. (v) autoleveled image iv, showing fluorescence crosstalk of GFP. (B) Enzyme induced staining of cells as measured with filter set exc. 535/50 nm, em. 610/75 nm; dichroic mirror 535 nm. The membrane fluorescence increases over time. (C). Inverted and contrast-enhanced fluorescence images corresponding to row B. (D) Difference images. The image A/iv was subtracted from the images in row B. The resulting images were inverted and contrast was enhanced.
as §1, with “17.” for “16.”, “200 nM Di-12P-ASPBS.” for “1 mM Di-10P-ASPBS.”, “difference” for “and contrast-enhanced fluorescence images corresponding to row B. (D) Difference”, “enhanced. (D) Contrast enhanced images of row C.” for “enhanced.”
Enzyme induced staining. The dye precursors Di-10P-ASPBS and Di-12P-ASPBS were used to effect enzyme induced staining on cells. To test whether the staining is selective, a mixture of two cell populations was cultured in the same dish. One of these stably expressed the phosphatase construct, while the other was stably expressing GFP as a negative marker.

[4] = test system: Madine Darby Canine Kidney (MDCK) cells; experiment: Enzyme induced staining of transiently transfected MDCK cells; type: cell-based
Experimental: FIG. 19. Genetically Targeted Staining of MDCK cells with Di-10P-ASPBS and Di-12P-ASPBS. (A) Cells were cotransfected with the membrane-bound phosphatase construct termed ArtPlasMA AP and H2B-GFP, a nucleus-localized transfection marker. Brightfield image and fluorescence images before (−1 sec) and after addition of 200 nM Di-10P-ASPBS. (B) Analogous to row A, but using 200 nM Di-12P-ASPBS. (C) Control experiment. Cells were transfected only with H2B-GFP and incubated with 200 nM Di-12P-ASPBS. Brightfield image and fluorescence images before (−1 sec) and after addition of dye (8 min). (D) Control experiment. Cells were cotransfected with the membrane-bound phosphatase construct termed ArtPlasMA AP and H2B-GFP and incubated with the dye Di-10A-ASPBS. Brightfield image and fluorescence image before (−1 sec) and after addition of dye (20 sec).
Two control experiments were performed: In the first control, cells were transfected only with the transfection marker H2B-GFP. […] In addition, no difference in staining intensity between transfected and untransfected cells can be discerned (FIG. 19C). In the second control experiment, cells were cotransfected with the phosphatase construct and the transfection marker.

[5] = cells cotransfected with ArtPlasMA AP and H2B-GFP, 200 nM

In the case of CCCCN(CCCC)c1ccc(C=Cc2cc[n+](CCCCS(=O)(=O)[O-])cc2)cc1 [Di-4-ASPBS, Di-4-ASP butylsulfonate, reference compound], the “average binding constant K to lipid membrane” value [1] is listed as 7500 ± 440 M⁻¹, the “increment of the binding energy Δ(ΔG) relative to the alcohol” value ([1]; −RT ln(K/KA)) is listed as 0.526 kcal/mol and the “increase in fluorescence quantum yield” value [2] is listed as 36 fold.

For CCCCN(CCCC)c1ccc(/C=C/c2cc[n+](CCCO)cc2)cc1.[Br-] [Di-4-ASPP alcohol, 1-[γ-hydroxypropyl]-trans-4-[p-(di-n-butylamino)styryl]-pyridinium bromide], the “average binding constant K to lipid membrane” value [1] was 17920 ± 360 M⁻¹.

In the case of Di-8-phosphato-ASPBS, the “permeation of the cell plasma membrane” value (HEK 293 cells; 19.6 μM, 30 minutes, cell interior stained only slightly) is reported as “permeates the cell plasma membrane very slowly”, the “membrane fluorescence before enzyme addition” value (HEK 293 cells; 19.6 μM, after 30 minutes, no enzyme) is reported as “no membrane fluorescence could be detected” and the “membrane fluorescence after addition of soluble PLAP” value (HEK 293 cells; PLAP 0.18 DEA Units/ml, 15 sec to 6 min) is reported as “membrane fluorescence was activated and increased over time”. The “membrane fluorescence directly after dye addition” value ([3]; transfected HEK 293 cell) was “no membrane fluorescence was visible”, the “membrane staining after 5 min of incubation” value ([3]; transfected HEK 293 cell) was “the membrane of the transfected cell was clearly stained” and the “membrane fluorescence of untransfected control cells” value ([3]; untransfected HEK 293 cells incubated with the dye) was “did not show any membrane fluorescence”.

With Di-10-hydroxy-ASPBS [Di-10A-ASPBS] the “binding constant to lipid membranes” value [1] was 250,000 M^−1 and the “staining by product dye, transfected versus untransfected cells” value ([4]; cotransfected with phosphatase construct and H2B-GFP) was “equally and unselectively stained”.

With Di-10-phosphato-ASPBS [Di-10P-ASPBS] the “binding constant to lipid membranes” value [1] was 27 M⁻¹, the “difference in binding constants between dye alcohol and dye phosphate (precursor)” value ([1]; pair precursor/product dye) was 10,000 factor and the “enzyme induced membrane staining in mixed cell populations” value ([3]; phosphatase clones and GFP clones in same dish, 1 mM Di-10P-ASPBS, 200 nM Di-12P-ASPBS) was “allowed enzyme induced membrane staining”. The “localization of staining at beginning of experiment” value [4, 5] was “staining is localized to the transfected cells at the beginning of the experiment” and the “localization of staining over several minutes” value [4, 5] was “the produced dye diffuses to the surrounding, nontransfected cells”.
